Molecular target: human factor Xa (Homo sapiens, UniProt P00742)
Experiment: biochemical
Conditions: human factor Xa 3 nM, chromogenic substrate S-2222, HNPT buffer pH 7.8, room temperature; apparent Ki calculated from IC50 according to Cheng and Prusoff
Protocol: Factor Xa activity was measured spectrophotometrically in microtiter plates in a final volume of 150 μl using the following conditions: Inhibition of human factor Xa (Enzyme Research Laboratories) was tested at an enzyme concentration of 3 nM using the chromogenic substrate S-2222 (Chromogenix AB, Mölndal, Sweden) at 200 nM. The reaction kinetics of the enzyme and the substrate were linear with both time and the enzyme concentration. The inhibitors were dissolved in DMSO and tested at various concentrations up to 100 μM. The inhibitors were diluted using HNPT buffer consisting of HEPES 100 mM, NaCl 140 mM, PEG 6000 0.1% and Tween 80 0.02%, pH 7.8. […]
The velocity of the reaction was determined by the autoreader from the slope of the linear regression fit to 7 time points (1 minute). The initial velocity for each inhibitor concentration was determined by the slope of at least 4 time points in the linear phase by a linear regression fit (mOD/min^2). Apparent dissociation constants Ki were calculated according to Cheng and Prusoff [Cheng, Y. C.; Prusoff, W. H. Relationship between the inhibition constant (Ki) and the concentration of the inhibitor that causes 50 percent inhibition (IC50) of an enzyme reaction. Biochem. Pharmacol. 1973, 22, 3099-3108.] based on the IC50 and the respective Km, determined previously (Ki=IC50/(I+S/Km)). […]

Sequence of human factor Xa (P00742 235-488 limits assumed): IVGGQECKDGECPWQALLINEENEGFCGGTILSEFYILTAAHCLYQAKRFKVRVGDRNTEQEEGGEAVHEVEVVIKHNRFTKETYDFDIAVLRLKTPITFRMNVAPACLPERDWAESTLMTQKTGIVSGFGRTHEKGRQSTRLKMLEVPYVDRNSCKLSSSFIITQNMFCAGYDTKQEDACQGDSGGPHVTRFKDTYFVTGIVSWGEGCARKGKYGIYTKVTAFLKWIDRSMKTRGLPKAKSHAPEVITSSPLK
Sequence of human factor Xa (P00742 41-179 partner limits assumed): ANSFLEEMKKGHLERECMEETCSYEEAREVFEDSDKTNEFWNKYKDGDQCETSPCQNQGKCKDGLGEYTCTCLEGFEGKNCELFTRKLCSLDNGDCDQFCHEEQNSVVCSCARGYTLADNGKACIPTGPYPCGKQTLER

Ki: 26 nM
SMILES: CN1CCC(N2CCN(C(=O)Cc3csc(NC(=O)c4ccc(Br)s4)n3)CC2)CC1 [Ex. 47.3, 5-bromo-thiophene-2-carboxylic acid (4-{2-[4-(1-methyl-piperidin-4-yl)-piperazin-1-yl]-2-oxo-ethyl}-thiazol-2-yl)-amide]
